This note sets out measurements from PMC8708985, “Regulation of D-Aspartate Oxidase Gene Expression by Pyruvate Metabolism in the Yeast Cryptococcus humicola” (Microorganisms, 2021).

In the assay the target is T1, ChDDO (Vanrija humicola, UniProt Q75WF1).
T1 construct: gene DDO; native enzyme in crude extract of D-Asp-induced strain UJ1 cells; FAD added
Put plainly: HRP-coupled phenol/4-aminoantipyrine H2O2 assay at […] nm, crude extract. Type of assay: biochemical. Particulars: 20 mM D-Asp; 20 uM FAD; 50 mM potassium phosphate pH 8.0.

T1 sequence (Q75WF1 whole entry): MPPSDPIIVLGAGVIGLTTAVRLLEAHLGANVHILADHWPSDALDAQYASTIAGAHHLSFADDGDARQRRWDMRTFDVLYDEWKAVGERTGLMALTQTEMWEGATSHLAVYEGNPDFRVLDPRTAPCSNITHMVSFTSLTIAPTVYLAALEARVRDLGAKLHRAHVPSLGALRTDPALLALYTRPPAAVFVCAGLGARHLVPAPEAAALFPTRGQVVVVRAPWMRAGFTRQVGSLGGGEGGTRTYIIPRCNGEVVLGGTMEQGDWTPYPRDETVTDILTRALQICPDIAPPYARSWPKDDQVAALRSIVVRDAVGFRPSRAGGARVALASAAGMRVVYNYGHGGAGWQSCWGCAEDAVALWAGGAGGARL

Turning to `N[C@H](CC(=O)O)C(=O)O` [D-Asp], the “HRP-coupled phenol/4-aminoantipyrine H2O2 assay at 505 nm, crude extract” value was “the enzyme activity in the crude extract of the ΔChpyc1 strain induced by D-Asp”.
